In patent US20250154144A1 (CHILDREN'S HOSPITAL MEDICAL CENTER, priority 2021, published 2025):
Read-outs that look alike come from different tables or passages of the source.

Columns and labels:
[1] = molecular target: T1, FLT3 (Homo sapiens, UniProt P36888); experiment: RBC HotSpot Kinase Assay, FLT3
T1 sequence (P36888 610-943 limits assumed): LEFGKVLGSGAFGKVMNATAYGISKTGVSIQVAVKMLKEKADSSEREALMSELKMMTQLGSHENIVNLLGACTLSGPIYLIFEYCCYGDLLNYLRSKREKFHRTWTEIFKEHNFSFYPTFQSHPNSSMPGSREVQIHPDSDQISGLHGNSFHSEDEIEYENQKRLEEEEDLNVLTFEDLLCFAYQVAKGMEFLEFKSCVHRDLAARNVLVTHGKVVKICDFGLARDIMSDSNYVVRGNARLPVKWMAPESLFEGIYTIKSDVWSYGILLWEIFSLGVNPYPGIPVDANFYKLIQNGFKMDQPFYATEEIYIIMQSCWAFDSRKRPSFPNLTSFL

[2] = molecular target: T2, IRAK4 (Homo sapiens, UniProt Q9NWZ3); experiment: Reaction Biology NanoBRET target engagement assay in HEK-293 cells, IRAK4; conditions: NanoBRET IRAK4 IC50, HEK-293 cells
T2 sequence (Q9NWZ3 1-460): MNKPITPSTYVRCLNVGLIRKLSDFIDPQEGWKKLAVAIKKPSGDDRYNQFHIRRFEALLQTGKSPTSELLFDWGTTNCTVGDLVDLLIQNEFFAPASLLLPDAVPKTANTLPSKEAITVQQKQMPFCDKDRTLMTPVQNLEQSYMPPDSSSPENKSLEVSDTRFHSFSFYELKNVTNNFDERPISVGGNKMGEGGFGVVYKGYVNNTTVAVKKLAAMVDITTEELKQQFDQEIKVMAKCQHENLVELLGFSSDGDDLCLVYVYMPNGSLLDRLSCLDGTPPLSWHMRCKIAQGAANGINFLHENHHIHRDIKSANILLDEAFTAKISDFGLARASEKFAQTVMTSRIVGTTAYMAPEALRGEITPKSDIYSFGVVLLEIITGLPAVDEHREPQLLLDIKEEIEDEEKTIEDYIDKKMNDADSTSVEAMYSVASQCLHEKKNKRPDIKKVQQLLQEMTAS

[3] = molecular target: IRAK1 (Homo sapiens, UniProt P51617); experiment: RBC HotSpot Kinase Assay, IRAK1; conditions: IRAK1 IC50
[4] = system: MOLM14 F691L cells; experiment: cells; type: cell-based; conditions: 48 hours, Cell Titer Glo, read-out: MOLM14 F691L IC50
[5] = molecular target: T3, FLT3 (Homo sapiens, UniProt P36888); experiment: Reaction Biology NanoBRET target engagement assay in HEK-293 cells, FLT3
T3 sequence (P36888 27-993): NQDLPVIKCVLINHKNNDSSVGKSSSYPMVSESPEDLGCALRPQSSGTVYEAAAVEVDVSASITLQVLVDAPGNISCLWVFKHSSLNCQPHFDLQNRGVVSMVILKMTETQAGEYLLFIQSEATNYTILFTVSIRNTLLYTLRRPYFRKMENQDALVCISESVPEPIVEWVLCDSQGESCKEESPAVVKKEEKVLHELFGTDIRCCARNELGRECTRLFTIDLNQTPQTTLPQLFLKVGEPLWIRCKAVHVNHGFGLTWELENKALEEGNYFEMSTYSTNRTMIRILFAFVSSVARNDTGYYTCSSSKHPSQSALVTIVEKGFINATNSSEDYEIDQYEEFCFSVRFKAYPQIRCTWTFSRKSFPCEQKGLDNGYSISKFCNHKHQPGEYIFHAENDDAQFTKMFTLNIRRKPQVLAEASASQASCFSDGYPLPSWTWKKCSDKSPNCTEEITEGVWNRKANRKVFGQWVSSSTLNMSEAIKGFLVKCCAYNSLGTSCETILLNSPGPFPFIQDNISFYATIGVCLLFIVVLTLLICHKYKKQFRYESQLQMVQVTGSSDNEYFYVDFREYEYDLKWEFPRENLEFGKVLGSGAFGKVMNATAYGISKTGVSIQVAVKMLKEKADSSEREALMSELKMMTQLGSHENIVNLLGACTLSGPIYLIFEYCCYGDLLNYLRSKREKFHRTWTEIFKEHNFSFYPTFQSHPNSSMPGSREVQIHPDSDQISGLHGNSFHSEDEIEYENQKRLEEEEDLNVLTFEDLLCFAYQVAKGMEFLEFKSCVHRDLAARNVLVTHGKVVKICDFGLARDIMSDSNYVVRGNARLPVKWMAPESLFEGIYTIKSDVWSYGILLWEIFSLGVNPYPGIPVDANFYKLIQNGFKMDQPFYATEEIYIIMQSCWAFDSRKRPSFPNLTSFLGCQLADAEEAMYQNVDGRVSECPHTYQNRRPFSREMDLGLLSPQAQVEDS

[6] = system: MOLM14 D835Y cells; experiment: cells; type: cell-based; conditions: 48 hours, Cell Titer Glo, read-out: MOLM14 D835Y IC50
[7] = molecular target: T2, IRAK4; experiment: RBC HotSpot Kinase Assay, IRAK4; conditions: IRAK4 IC50
[8] = NanoBRET FLT3 IC50, HEK-293 cells

Chain of IRAK1 (P51617 whole entry): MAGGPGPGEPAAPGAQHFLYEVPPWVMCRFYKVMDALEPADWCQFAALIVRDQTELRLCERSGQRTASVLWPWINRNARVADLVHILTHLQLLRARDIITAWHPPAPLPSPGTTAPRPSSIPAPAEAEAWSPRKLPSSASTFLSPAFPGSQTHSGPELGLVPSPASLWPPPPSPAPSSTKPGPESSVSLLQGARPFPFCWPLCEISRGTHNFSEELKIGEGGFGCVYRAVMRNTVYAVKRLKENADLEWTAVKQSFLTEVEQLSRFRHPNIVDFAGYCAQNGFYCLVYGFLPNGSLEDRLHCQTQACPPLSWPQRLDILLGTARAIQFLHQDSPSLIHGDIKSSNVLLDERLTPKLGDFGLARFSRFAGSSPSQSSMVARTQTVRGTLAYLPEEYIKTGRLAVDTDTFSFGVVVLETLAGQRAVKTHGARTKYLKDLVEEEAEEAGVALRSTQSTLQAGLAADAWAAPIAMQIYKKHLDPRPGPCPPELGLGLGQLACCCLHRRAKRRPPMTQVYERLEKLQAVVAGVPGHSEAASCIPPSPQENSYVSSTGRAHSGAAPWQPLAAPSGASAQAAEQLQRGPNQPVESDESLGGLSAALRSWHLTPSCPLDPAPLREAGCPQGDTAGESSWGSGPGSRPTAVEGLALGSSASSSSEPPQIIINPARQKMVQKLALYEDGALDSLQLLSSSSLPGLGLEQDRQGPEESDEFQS

Row | IC50 ([1]; FLT3 IC50) [nM] | IC50 [2] [nM] | IC50 [3] [nM] | IC50 ([4]; Homo sapiens, MOLM-14, 48 h) [nM] | IC50 [5, 8] [nM] | IC50 [6] [nM] | IC50 [7] [nM] | IC50 ([6]; Homo sapiens, MOLM-14, 48 h) [nM] | IC50 ([1]; read-out: FLT3 IC50) [nM] | IC50 [4] [nM] | IC50 [5] [nM] | SMILES
1 | < 0.5 | 24 | 27 | 1220 | 1950 | 193 | 1 | – | – | – | – | CC(O)(c1cn2c(-c3ccnc(N[C@H]4CNC[C@@H]4F)n3)cnc2cn1)C(F)(F)F (single isomer, unassigned) [Compound 69]
2 | 0.8 | < 0.5 | 24 | 596 | 34 | – | 3 | 53 | – | – | – | CC(C)Oc1ccn2c(-c3ccnc(N[C@H]4CNC[C@@H]4F)n3)cnc2c1 [Compound 25, N-((3S,4S)-4-fluoropyrrolidin-3-yl)-4-(7-isopropoxyimidazo[1,2-a]pyridin-3-yl)pyrimidin-2-amine]
3 | < 0.5 | < 0.5 | 0.5 | 34 | 159 | – | < 0.5 | 27 | – | – | – | COc1cc2ncc(-c3cncc(N[C@H]4CNCC[C@@H]4F)n3)n2cc1C(C)(C)O [Compound 21, 2-(3-(6-(((3S,4S)-4-fluoropiperidin-3-yl)amino)pyrazin-2-yl)-7-methoxyimidazo[1,2-a]pyridin-6-yl)propan-2-ol]
4 | 1 | 0.8 | 116 | – | 2820 | – | 3 | – | – | – | – | CC(C)(O)c1ccc2ncc(-c3cncc(N[C@H]4CNCC[C@@H]4F)n3)n2c1 [Compound 18, 2-(3-(6-(((3S,4S)-4-fluoropiperidin-3-yl)amino)pyrazin-2-yl)imidazo[1,2-a]pyridin-6-yl)propan-2-ol]
5 | – | 29 | 12 | – | 1120 | – | 43 | – | < 0.5 | – | – | CC(O)(c1cn2c(-c3ccnc(N[C@H]4CNCC[C@@H]4F)n3)cnc2cn1)C(F)(F)F (single isomer, unassigned) [Compound 70]
6 | < 0.5 | 0.8 | 11 | 172 | 15 | – | 2 | 24 | – | – | – | F[C@H]1CCNC[C@@H]1Nc1nccc(-c2cnc3cc(OC4CC4)ccn23)n1 [Compound 39, 4-(7-cyclopropoxyimidazo [1,2-a]pyridin-3-yl)-N-((3S,4S)-4-fluoropiperidin-3-yl)pyrimidin-2-amine]
7 | < 0.5 | 10 | 69 | 154 | 367 | – | 4 | 77 | – | – | – | FC(F)Oc1ccn2c(-c3cncc(N[C@H]4CNCC[C@@H]4F)n3)cnc2c1 [Compound 15, 6-(7-(difluoromethoxy)imidazo [1,2-a]pyridin-3-yl)-N-((3S,4S)-4-fluoropiperidin-3-yl)pyrazin-2-amine]
8 | – | 3 | 7 | – | – | 86 | 4 | – | < 0.5 | 545 | 388 | CC(O)(c1cn2c(-c3ccnc(N[C@@H]4CCCNC4)n3)cnc2cn1)C(F)(F)F (single isomer, unassigned) [Compound 68]
9 | < 0.5 | < 0.5 | 53 | 168 | 2 | – | 2 | 19 | – | – | – | CC(C)Oc1ccn2c(-c3ccnc(N[C@@H]4CCCNC4)n3)cnc2c1 [Compound 26, (R)-4-(7-isopropoxyimidazo[1,2-a]pyridin-3-yl)-N-(piperidin-3-yl)pyrimidin-2-amine]
10 | < 0.5 | 19 | 8 | 686 | 3860 | 486 | 2 | – | – | – | – | CC(O)(c1cn2c(-c3cncc(N[C@H]4CNCC[C@@H]4F)n3)cnc2cn1)C(F)(F)F (single isomer, unassigned) [Compound 76]
11 | < 0.5 | < 0.5 | 65 | 31 | 22 | – | 1 | 19 | – | – | – | FC(F)COc1ccn2c(-c3cncc(N[C@H]4CNCC[C@@H]4F)n3)cnc2c1 [Compound 9, 6-(7-(2,2-difluoroethoxy)imidazo[1,2-a]pyridin-3-yl)-N-((3S,4S)-4-fluoropiperidin-3-yl)pyrazin-2-amine]
